Results taken from BindingDB's records for doi:10.1021/jm801643b (Vanderbilt University, 2009).

These compounds were tested against Sterol 14-alpha demethylase (Trypanosoma cruzi (strain CL Brener), UniProt Q7Z1V1) (assay: Spectral Titration of TCCYP51). Conditions: pH 7.4; 24 °C.
Method: As a cysteine-coordinated hemoprotein, sterol 14-alpha-demethylase responds spectrally to any perturbations in the area surrounding the heme iron. These spectral responses can be used to estimate the apparent dissociation constants (Kd) of the enzyme/ligand complexes. […] The tested compounds were added in 1 ul aliquots to the test cuvette until the maximum in spectral response was reached. Equal volumes of DMSO were added to the reference cuvette. The apparent Kd values were determined from the equilibrium titration curves by plotting absorbance changes against the concentration of free ligand and fitting the data to a rectangular hyperbola using SigmaPlot Statistics.

Sterol 14-alpha demethylase, sequence (Q7Z1V1 whole entry): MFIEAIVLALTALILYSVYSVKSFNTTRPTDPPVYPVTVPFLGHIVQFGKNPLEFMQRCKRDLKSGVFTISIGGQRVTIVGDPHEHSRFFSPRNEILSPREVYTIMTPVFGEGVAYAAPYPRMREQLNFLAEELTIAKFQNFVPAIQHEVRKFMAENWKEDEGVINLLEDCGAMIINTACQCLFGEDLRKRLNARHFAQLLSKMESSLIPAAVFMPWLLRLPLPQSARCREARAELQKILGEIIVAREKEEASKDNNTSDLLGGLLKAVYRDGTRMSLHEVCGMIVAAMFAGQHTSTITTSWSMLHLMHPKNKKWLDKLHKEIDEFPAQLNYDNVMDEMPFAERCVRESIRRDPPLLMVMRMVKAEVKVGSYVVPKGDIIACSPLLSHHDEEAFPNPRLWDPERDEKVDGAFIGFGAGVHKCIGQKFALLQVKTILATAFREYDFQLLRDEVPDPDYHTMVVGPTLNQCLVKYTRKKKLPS

SMILES | Kd [nM]
COc1ccc2c(c1)c(CC(=O)Nc1cccnc1C)c(C)n2C(=O)c1ccc(Cl)cc1 [Indomethacin-amide derivative, 13] | 7600
COc1ccc2c(c1)c(CC(=O)NCc1ccc(Cl)nc1)c(C)n2C(=O)c1ccc(Cl)cc1 [Indomethacin-amide derivative, 18] | 260
COc1ccc2c(c1)c(CC(=O)NCc1ccc(C(F)(F)F)nc1)c(C)n2C(=O)c1ccc(Cl)cc1 [Indomethacin-amide derivative, 19] | 560
